Measured values published in ChEMBL document CHEMBL1201862, “PubChem BioAssay data set” (2004).
Active and inactive are the calls of the source.

How the values were obtained:
[1] = biological target: T1, Corticotropin-releasing factor receptor 2/Corticotropin-releasing factor-binding protein (Homo sapiens, UniProt P24387+Q13324); experiment: Dose Response confirmation of uHTS hits for small molecule antagonists of the CRF-binding protein and CRF-R2 receptor complex.; type: functional; conditions: read-out: IC50_Mean
T1 sequence (Q13324 whole entry): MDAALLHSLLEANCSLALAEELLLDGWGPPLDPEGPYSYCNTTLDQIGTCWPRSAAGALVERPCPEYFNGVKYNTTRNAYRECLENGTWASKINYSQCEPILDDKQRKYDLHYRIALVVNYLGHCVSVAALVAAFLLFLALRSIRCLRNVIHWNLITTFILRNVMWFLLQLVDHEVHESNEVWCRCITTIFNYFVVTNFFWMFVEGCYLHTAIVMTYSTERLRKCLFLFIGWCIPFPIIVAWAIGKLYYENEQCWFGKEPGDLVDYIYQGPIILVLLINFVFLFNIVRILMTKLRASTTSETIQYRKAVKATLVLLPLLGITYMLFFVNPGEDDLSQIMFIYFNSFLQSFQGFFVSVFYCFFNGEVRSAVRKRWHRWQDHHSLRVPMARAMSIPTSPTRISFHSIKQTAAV
T1 sequence (P24387 whole entry): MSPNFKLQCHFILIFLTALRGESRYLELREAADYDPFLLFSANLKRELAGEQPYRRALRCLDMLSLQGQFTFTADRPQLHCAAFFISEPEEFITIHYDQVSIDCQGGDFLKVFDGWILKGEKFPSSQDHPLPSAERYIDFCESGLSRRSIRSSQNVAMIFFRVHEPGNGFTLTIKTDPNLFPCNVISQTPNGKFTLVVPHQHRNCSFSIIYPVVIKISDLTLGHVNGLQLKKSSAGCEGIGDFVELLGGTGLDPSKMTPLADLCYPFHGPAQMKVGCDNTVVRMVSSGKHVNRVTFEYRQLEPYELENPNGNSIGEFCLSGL

[2] = biological target: T1, Corticotropin-releasing factor receptor 2/Corticotropin-releasing factor-binding protein; experiment: activators of CRF receptor 2 with binding protein – uHTS hits, confirmation (AID 602473); type: functional; conditions: read-out: EC50_Mean
[3] = Luminescence Cell-Based Dose Confirmation HTS to Identify Activators of 5'UTR Stem-Loop Driven Alpha-Synuclein mRNA Translation in H4 Neuroglioblastoma Cells. [Related pubchem assays: 1829 (Project Summary), 1814 (Primary HTS)]; type: functional
[4] = Luminescence Cell-Based Dose Response HTS to Identify Activators of Luciferase Translation or Activity in H4 […] Cells. [Related pubchem assays: 1829 (Project Summary), 1814 (Primary HTS)]; type: functional
[5] = system: H4; experiment: Luminescence Cell-Based Dose Response HTS to Identify Activators of 5'UTR Stem-Loop Driven Prion Protein mRNA Translation in H4 Neuroglioblastoma Cells. [Related pubchem assays: 1829 (Project Summary), 1814 (Primary HTS)]; type: functional; conditions: Homo sapiens
[6] = biological target: Cytochrome P450 2C19 (Homo sapiens, UniProt P33261); experiment: Cytochrome panel assay with activity outcomes. Panel member name: p450-cyp2c19 Compounds with AC50 equal or less than 10 uM are considered active; type: functional
[7] = biological target: T2, Cytochrome P450 1A2 (Homo sapiens, UniProt P05177);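 further: PubChem cytochrome P450 panel assay, CYP1A2 panel member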
T2 sequence (P05177 whole entry): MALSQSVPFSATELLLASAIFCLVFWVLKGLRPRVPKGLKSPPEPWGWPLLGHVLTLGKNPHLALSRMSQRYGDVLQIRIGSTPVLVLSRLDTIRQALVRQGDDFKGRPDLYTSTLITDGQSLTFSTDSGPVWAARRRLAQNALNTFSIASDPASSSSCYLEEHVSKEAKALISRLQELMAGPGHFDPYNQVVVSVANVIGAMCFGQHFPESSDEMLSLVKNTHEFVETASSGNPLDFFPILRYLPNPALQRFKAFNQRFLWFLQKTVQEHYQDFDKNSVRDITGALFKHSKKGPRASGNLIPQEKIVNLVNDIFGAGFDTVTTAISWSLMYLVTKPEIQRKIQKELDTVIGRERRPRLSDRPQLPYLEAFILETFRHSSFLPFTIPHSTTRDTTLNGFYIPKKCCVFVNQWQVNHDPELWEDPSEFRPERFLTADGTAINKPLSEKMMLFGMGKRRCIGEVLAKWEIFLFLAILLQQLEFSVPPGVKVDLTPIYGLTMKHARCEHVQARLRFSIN

[8] = biological target: Cytochrome P450 3A4 (Homo sapiens, UniProt P08684);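 further: CYP3A4 tested as one member of a cytochrome P450 panel screen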
[9] = biological target: Cytochrome P450 2C9 (Homo sapiens, UniProt P11712)
[10] = system: Streptococcus sp. 'group A'; experiment: growth inhibition of control SK(-) GAS strain, dose response, counter-screen for streptokinase expression inhibitor project, luminescence, kanamycin, BacTiterGlo, confirmation (AID 1900); type: functional, organism-based
[11] = biological target: T3, Streptokinase A (Streptococcus pyogenes serotype M1, UniProt P10520); experiment: S. pyogenes streptokinase expression inhibitors, potency, dose response, plasminogen activation absorbance, OD405 (AID 1914); type: functional, Streptococcus pyogenes M1 GAS;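 further: secreted streptokinase activity via plasminogen activation per viability signal from cell pellet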
T3 sequence (P10520 whole entry): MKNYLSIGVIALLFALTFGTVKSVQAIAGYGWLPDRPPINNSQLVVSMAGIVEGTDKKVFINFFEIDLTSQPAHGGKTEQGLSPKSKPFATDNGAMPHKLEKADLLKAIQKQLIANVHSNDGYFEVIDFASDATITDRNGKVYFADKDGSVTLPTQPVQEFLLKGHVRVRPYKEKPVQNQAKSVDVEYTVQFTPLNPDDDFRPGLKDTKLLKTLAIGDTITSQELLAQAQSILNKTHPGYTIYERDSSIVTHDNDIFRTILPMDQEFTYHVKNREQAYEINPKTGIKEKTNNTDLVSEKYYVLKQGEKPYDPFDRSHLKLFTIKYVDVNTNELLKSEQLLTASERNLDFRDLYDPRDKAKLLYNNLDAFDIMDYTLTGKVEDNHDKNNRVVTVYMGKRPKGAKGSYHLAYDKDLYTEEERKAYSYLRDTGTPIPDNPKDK

[12] = system: Streptococcus; experiment: Group A Streptococcus viability loss, dose response, counter-screen for streptokinase expression inhibitor project, luminescence, BacTiterGlo (AID 1915); type: functional, organism-based;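 further: potency for reduction of bacterial viability or growth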
[13] = biological target: Cytochrome P450 2D6 (Homo sapiens, UniProt P10635)
[14] = P. falciparum Dd2 growth inhibitors, dose response, SYBR Green, cherry-picked samples (AID 1159567); type: functional, cell-based

Chain of Cytochrome P450 2C9 (P11712 whole entry): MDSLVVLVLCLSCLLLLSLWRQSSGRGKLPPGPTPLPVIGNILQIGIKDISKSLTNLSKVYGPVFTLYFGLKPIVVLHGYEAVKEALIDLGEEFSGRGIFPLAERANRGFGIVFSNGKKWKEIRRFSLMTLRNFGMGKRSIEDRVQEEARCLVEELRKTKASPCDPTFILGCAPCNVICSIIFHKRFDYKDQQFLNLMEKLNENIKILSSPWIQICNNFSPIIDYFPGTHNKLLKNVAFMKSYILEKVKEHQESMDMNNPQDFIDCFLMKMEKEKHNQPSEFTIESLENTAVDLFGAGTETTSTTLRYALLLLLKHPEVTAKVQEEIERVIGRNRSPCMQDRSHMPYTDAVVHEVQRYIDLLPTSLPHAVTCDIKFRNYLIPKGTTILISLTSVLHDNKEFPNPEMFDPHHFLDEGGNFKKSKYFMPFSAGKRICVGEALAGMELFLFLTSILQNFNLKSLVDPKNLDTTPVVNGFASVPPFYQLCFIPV
Chain of Cytochrome P450 3A4 (P08684 whole entry): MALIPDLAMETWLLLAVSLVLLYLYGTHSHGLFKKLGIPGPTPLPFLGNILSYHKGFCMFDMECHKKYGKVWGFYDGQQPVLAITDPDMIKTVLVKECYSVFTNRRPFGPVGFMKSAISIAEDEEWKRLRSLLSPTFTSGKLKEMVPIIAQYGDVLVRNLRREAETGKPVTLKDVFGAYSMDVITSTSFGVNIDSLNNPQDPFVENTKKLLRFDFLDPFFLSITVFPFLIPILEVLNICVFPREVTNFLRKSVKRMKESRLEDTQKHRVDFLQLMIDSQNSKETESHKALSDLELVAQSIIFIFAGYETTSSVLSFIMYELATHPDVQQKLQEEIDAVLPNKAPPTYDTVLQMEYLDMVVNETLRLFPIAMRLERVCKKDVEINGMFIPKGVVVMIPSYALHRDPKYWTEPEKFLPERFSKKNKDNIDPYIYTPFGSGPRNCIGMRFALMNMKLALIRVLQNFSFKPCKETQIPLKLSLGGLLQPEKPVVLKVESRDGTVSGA
Chain of Cytochrome P450 2C19 (P33261 whole entry): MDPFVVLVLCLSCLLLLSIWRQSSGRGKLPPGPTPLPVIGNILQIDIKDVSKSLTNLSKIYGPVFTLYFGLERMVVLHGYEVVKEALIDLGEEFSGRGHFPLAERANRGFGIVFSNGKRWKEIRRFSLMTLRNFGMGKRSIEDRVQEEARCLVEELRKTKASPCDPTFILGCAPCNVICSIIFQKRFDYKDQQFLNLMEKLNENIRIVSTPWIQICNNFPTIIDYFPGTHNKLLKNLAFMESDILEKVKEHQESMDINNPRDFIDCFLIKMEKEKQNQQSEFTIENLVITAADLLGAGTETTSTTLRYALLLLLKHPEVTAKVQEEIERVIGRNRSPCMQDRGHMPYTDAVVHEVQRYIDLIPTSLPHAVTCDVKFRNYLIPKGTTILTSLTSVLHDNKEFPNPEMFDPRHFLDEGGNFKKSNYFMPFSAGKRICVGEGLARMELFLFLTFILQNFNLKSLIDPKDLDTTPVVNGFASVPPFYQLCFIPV
Chain of Cytochrome P450 2D6 (P10635 whole entry): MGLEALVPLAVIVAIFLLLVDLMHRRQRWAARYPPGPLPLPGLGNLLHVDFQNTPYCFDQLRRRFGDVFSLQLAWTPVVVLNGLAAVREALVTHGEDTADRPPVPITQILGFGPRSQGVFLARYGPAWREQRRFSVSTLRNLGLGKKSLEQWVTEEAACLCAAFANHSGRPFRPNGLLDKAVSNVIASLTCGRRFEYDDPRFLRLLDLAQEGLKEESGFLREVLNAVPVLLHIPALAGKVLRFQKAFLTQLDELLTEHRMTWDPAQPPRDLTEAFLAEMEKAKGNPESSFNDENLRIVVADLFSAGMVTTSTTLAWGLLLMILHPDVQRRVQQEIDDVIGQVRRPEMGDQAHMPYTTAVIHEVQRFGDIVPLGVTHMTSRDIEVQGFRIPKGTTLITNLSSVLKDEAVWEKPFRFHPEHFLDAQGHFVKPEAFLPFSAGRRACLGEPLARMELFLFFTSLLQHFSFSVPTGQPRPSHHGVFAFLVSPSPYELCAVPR

SMILES	IC50 [1]	EC50 [2]	AC50 [8]	other results
O=[N+]([O-])/C(C(Cl)=C(Cl)Cl)=C(/NC1CC1)Sc1ccccc1	> 47.1 µM (inactive)	> 53 µM (inactive)	–	–
CS(=O)(=O)Nc1nc2n(n1)C(c1ccccc1)CC(c1ccccc1)N2 (centres undefined)	> 47.1 µM (inactive)	> 53 µM (inactive)	–	–
O=S(=O)(c1ccc(Cl)cc1)N1c2ccccc2Oc2nc3ccccc3nc21	–	–	–	EC50 [3]: > 120 µM (not active); EC50 [4]: > 120 µM (not active); EC50 [5]: > 120 µM (not active)
Cc1ccnc(NC(=S)NC(=O)/C=C/c2ccco2)c1	–	–	–	EC50 [3]: 0.458 µM (active); EC50 [4]: 9.64 µM (active); EC50 [5]: > 120 µM (not active)
CC[C@H]1C2=C3C(CC[C@H]4C(OC)OC[C@](C)([C@@H]34)N(C(=O)OC(C)(C)C)C2)C(CO)C1CO (some centres undefined)	–	–	10 µM (inconclusive)	AC50 [6]: inconclusive; AC50 [7]: 12.6 µM (inconclusive); AC50 [9]: 25.1 µM (inconclusive)
Cc1ccc(C)c(NC(=S)Nc2ncccc2C)c1	> 47.1 µM (inactive)	> 53 µM (inactive)	–	–
COc1ccccc1C1C(C(=O)c2sc(C)nc2C)=C(O)C(=O)N1CCN1CCOCC1 (centres undefined)	> 47.1 µM (inactive)	> 53 µM (inactive)	–	–
CCCP(=O)(CC(=O)N(CC)CC)c1ccccc1 (centres undefined)	> 47.1 µM (inactive)	> 53 µM (inactive)	–	–
Cn1c(=O)n(Cc2ccccc2Cl)c2ccccc21	> 47.1 µM (inactive)	> 53 µM (inactive)	–	–
CCc1ccccc1NC(=O)NC(C)c1ccc2c(c1)OCO2 (centres undefined)	> 47.1 µM (inactive)	> 53 µM (inactive)	–	EC50 [10]: > 150 µM (not active); EC50 [11]: > 150 µM (not active); EC50 [12]: > 150 µM (not active)
O=c1c2ccccc2nc2n1CC/C2=C\c1ccccc1[N+](=O)[O-]	–	–	10 µM (inconclusive)	AC50 ([6]; read-out: AC50): 3.98 µM (inconclusive)
O=C(O)c1ccccc1-c1ccccc1C(=O)Nc1ccccc1	–	–	28.2 µM (inconclusive)	AC50 [9]: 35.5 µM (inconclusive)
COc1ccc(S(=O)(=O)N2CCCC(C(=O)NCc3ccncc3)C2)cc1 (centres undefined)	> 47.1 µM (inactive)	> 53 µM (inactive)	–	–
CSc1ncc(Cl)c(C(=O)Nc2ccc(S(=O)(=O)N3CCOCC3)cc2)n1	> 47.1 µM (inactive)	> 53 µM (inactive)	–	–
COc1ccc(C2=C(C#N)C(=O)OC2)cc1	–	–	31.6 µM (inconclusive)	AC50 [9]: 39.8 µM (inconclusive)
C/C(CCN1CCc2nc(-c3ccccc3)c(-c3ccccc3)cc2C1)=N\OC[C@@H](C)[C@H](OCc1ccccc1)C(C)C	–	–	3.98 µM (inconclusive)	–
CS(=O)(=O)c1ccccc1COC(=O)Nc1ccc(Cl)cc1	–	–	12.6 µM (inconclusive)	AC50 [13]: 10 µM (inconclusive)
CCOC(=O)c1cc(=O)cc(C(=O)OCC)o1	> 47.1 µM (inactive)	> 53 µM (inactive)	–	–
CCCn1c(=N)c(S(=O)(=O)c2ccccc2)cc2c(=O)n3ccccc3nc21	> 47.1 µM (inactive)	> 53 µM (inactive)	–	–

SMILES	IC50 [1]	EC50 [2]	AC50 [8]	other results
CCc1ccc(N2CC(C)Cn3c2nc2c3c(=O)n(CCN3CCOCC3)c(=O)n2C)cc1 (centres undefined)	–	–	39.8 µM (inconclusive)	AC50 [9]: 0.178 µM (inconclusive)
Cc1nc2cnc(N3CCNCC3)nc2n(-c2ccccc2)c1=O	–	–	31.6 µM (inconclusive)	–
COC(=O)CSc1nc2ccccn2c(=O)c1C=O	–	–	–	EC50 [3]: 28.5 µM (active); EC50 [4]: 18.5 µM (active); EC50 [5]: > 120 µM (inconclusive)
Cc1cc(-c2cccc([N+](=O)[O-])c2)nc2ccc3ccccc3c12	–	–	3.16 µM (inconclusive)	AC50 ([6]; read-out: AC50): 20 µM (inconclusive)
Nc1ccc(N=Nc2ccccc2)cc1[N+](=O)[O-]	> 47.1 µM (inactive)	> 53 µM (inactive)	–	–
O=c1cc(CN2CCN(Cc3ccccc3)CC2)c2cc(O)ccc2o1	> 47.1 µM (inactive)	> 53 µM (inactive)	–	–
O=C(O)c1cc(S(=O)(=O)N2CCCCC2)ccc1F	–	–	1.26 µM (inconclusive)	–
COC(=O)C(C)Sc1nc(O)c2cnn(-c3ccc(C)cc3)c2n1 (centres undefined)	–	–	14.1 µM (inconclusive)	AC50 ([6]; read-out: AC50): 7.94 µM (inconclusive); AC50 [9]: 3.55 µM (inconclusive)
COc1cccc(/C(C)=N/NS(=O)(=O)c2ccc(Cl)cc2)c1	> 47.1 µM (inactive)	> 53 µM (inactive)	–	–
CO[C@@H]1CN(C)C(=O)c2cc(NC(=O)NC3CCCCC3)ccc2OC[C@@H](C)N(CCc2ccccc2)C[C@H]1C	–	–	–	AC50 [14]: 5.84 µM (active)
CC1=C(C(=O)OCc2ccccc2)C(c2ccc3ccccc3c2)NC(=O)N1CCCCCC(=O)O (centres undefined)	–	–	10 µM (inconclusive)	AC50 ([6]; read-out: AC50): 39.8 µM (inconclusive); AC50 [13]: 39.8 µM (inconclusive); AC50 [7]: 20 µM (inconclusive)
COc1cc(CN2CC3(CCN(C(=O)c4cccnc4)CC3)c3c([nH]c4cc(OC)ccc34)[C@@H]2CO)cc(OC)c1	–	–	–	AC50 [14]: 5.84 µM (active)
COc1ccc(CN2CC3(CN(C(C)=O)C3)c3c([nH]c4cc(OC)ccc34)[C@@H]2CO)cc1	–	–	–	AC50 [14]: 9.9 µM (active)
CN1c2ccc(C#Cc3cccnc3)cc2[C@H]2[C@H](CCN2C(=O)C2CCCC2)[C@H]1CO	–	–	–	AC50 [14]: 4 µM (active)
N#Cc1ccc(-c2ccc([C@@H]3[C@@H](CO)N4C(=O)CN(C(=O)C5CCC5)C[C@@H]34)cc2)cc1	–	–	–	AC50 [14]: 5.38 µM (active)
COc1cccc(C(=O)Nc2ccc3c(c2)C(=O)N(C)C[C@@H](OC)[C@H](C)CN(CCc2ccccc2)[C@H](C)CO3)c1	–	–	–	AC50 [14]: 4.35 µM (active)
OC[C@H]1CC[C@@H]2O[C@H](CCc3ccc(C#CCc4ccccc4)cc3)[C@@H](n3cc(-c4ccccc4)nn3)C[C@@H]2O1	–	–	–	AC50 [14]: 6.17 µM (active)
Cc1cccc(C)c1OC[C@@H](N)C(C)C	–	–	20 µM (inconclusive)	–
